The results in this text go back to ChEMBL document CHEMBL5352419, “Design, synthesis, and biological evaluation of tetrahydroquinoline amphiphiles as membrane-targeting antimicrobials against pathogenic bacteria and fungi” (Eur J Med Chem, 2022).

Holding throughout (type): functional
The subject of assay [1] is Staphylococcus aureus. Kind of assay: Disruption of preformed biofilm in Staphylococcus aureus ATCC29213 assessed as residual preformed biofilm at 6.25 ug/mL incubated for 24 hrs by crystal violet staining based analysis relative to control. The following applies: dose 6.25 µg/ml.
Assay [2] relates to Staphylococcus aureus. Description: Antimicrobial activity against methicillin-resistant Staphylococcus aureus NCTC10442 assessed as bacterial growth inhibition incubated for 24 hrs by Muller Hinton broth based dilution assay.
Assay [3] concerns Staphylococcus aureus. Kind of assay: Disruption of preformed biofilm in Staphylococcus aureus ATCC29213 assessed as residual preformed biofilm at 0.78 ug/mL incubated for 24 hrs by crystal violet staining based analysis relative to control. The note with it: dose 0.78 µg/ml.
Assay [4] concerns Staphylococcus aureus. Description: Antimicrobial activity against methicillin-resistant Staphylococcus aureus N315 assessed as bacterial growth inhibition incubated for 24 hrs by Muller Hinton broth based dilution assay.
Assay [5] has as its system Staphylococcus aureus. Kind of assay: Disruption of preformed biofilm in Staphylococcus aureus ATCC29213 assessed as residual preformed biofilm at 3.125 ug/mL incubated for 24 hrs by crystal violet staining based analysis relative to control. The note with it: dose 3.125 µg/ml.
The subject of assay [6] is Staphylococcus aureus. Kind of assay: Antibiofilm activity against Staphylococcus aureus ATCC29213 assessed as inhibition of biofilm formation at 0.78 ug/mL incubated for 24 hrs by crystal violet staining based analysis relative to control.
For assay [7], the system named is Staphylococcus aureus. Kind of assay: Antibiofilm activity against Staphylococcus aureus ATCC29213 assessed as inhibition of biofilm formation at 6.25 ug/mL incubated for 24 hrs by crystal violet staining based analysis relative to control.
Assay [8] concerns Staphylococcus aureus. Description: Disruption of preformed biofilm in Staphylococcus aureus ATCC29213 assessed as residual preformed biofilm at 12.5 ug/mL incubated for 24 hrs by crystal violet staining based analysis relative to control. The following applies: dose 12.5 µg/ml.
Assay [9] deals with Staphylococcus aureus. Kind of assay: Disruption of preformed biofilm in Staphylococcus aureus ATCC29213 assessed as residual preformed biofilm at 0.39 ug/mL incubated for 24 hrs by crystal violet staining based analysis relative to control. The following applies: dose 0.39 µg/ml.
Assay [10] concerns Staphylococcus aureus. Kind of assay: Antibiofilm activity against Staphylococcus aureus ATCC29213 assessed as inhibition of biofilm formation at 0.39 ug/mL incubated for 24 hrs by crystal violet staining based analysis relative to control.
The test system of the next assay is Escherichia coli. Description: Antimicrobial activity against Escherichia coli ATCC25922 assessed as bacterial growth inhibition incubated for 24 hrs by Muller Hinton broth based dilution assay.
Assay [11] has as its system Staphylococcus aureus. Kind of assay: Antimicrobial activity against Staphylococcus aureus ATCC29213 assessed as bacterial growth inhibition incubated for 24 hrs by Muller Hinton broth based dilution assay.
The next assay deals with Pseudomonas aeruginosa. Description: In vivo antibacterial activity against Pseudomonas aeruginosa ATCC9027 infected in keratitis C57BL/6 mouse model assessed as log reduction in bacterial load at 0.3 % administered topically 4 times per day for 3 days. The following applies: time 3 day.

≈ marks a conversion by molar mass, not a printed value. A value given as a limit tells only on which side of the number the result lay.

Turning to `CN[C@H](CC(C)C)C(=O)N[C@H]1C(=O)N[C@@H](CC(N)=O)C(=O)N[C@H]2C(=O)N[C@H]3C(=O)N[C@H](C(=O)N[C@H](C(=O)O)c4cc(O)cc(O)c4-c4cc3ccc4O)[C@H](O)c3ccc(c(Cl)c3)Oc3cc2cc(c3O[C@@H]2O[C@H](CO)[C@@H](O)[C@H](O)[C@H]2O[C@H]2C[C@](C)(N)[C@H](O)[C@H](C)O2)Oc2ccc(cc2Cl)[C@H]1O` [VANCOMYCIN], the Activity in the assay on Staphylococcus aureus [1] is given as 10.69%; in the assay on Staphylococcus aureus [3] it was 91.12%; in the assay with Staphylococcus aureus [5], 49.44%; in the assay with Staphylococcus aureus [8], -0.81%; in the assay with Staphylococcus aureus [9], 98.16%. In addition, the minimal inhibitory concentration (MIC) is 1.56 µg/mL (≈ 1.08 µM) with Staphylococcus aureus [2], 1.56 µg/mL (≈ 1.08 µM) in the assay with Staphylococcus aureus [4], more than 50 µg/mL in the assay on Escherichia coli and 0.78 µg/mL (≈ 0.538 µM) in the assay with Staphylococcus aureus [11]. For the same compound, the inhibition at 0.78 µg/mL in the assay with Staphylococcus aureus [6] turned out to be 30.3%. Also, in the assay with Staphylococcus aureus [7], the inhibition at 6.25 µg/mL was determined as 99.6%. Also, the inhibition at 0.39 µg/mL in the assay with Staphylococcus aureus [10] turned out to be 3.73%.

As for `COc1c(N2CCNC(C)C2)c(F)cc2c(=O)c(C(=O)O)cn(C3CC3)c12` (stereo not drawn) [GATIFLOXACIN], the “log(activity)” value in the assay on Pseudomonas aeruginosa amounted to 3.7.
